Measured values published in ChEMBL document CHEMBL1135030, “Antitumor agents. Part 212. Bucidarasins A-C, three new cytotoxic clerodane diterpenes from Bucida buceras” (Bioorg Med Chem Lett, 2002).

Key:
[1] = tested on: CAKI-1; assay: In vitro cytotoxicity against parental and drug resistant kidney human tumor cell line CAKI; type: functional, cell-based
[2] = tested on: 1A9; assay: In vitro cytotoxicity against parental and drug resistant ovarian human tumor cell line IA9; type: functional, cell-based
[3] = tested on: 1A9/ptx-10; assay: In vitro cytotoxicity against parental and drug resistant paclitaxel human tumor cell line IA9-PTX10; type: functional, cell-based
[4] = tested on: U-87 MG; assay: In vitro cytotoxicity against parental and drug resistant glioblastoma human tumor cell line U87MG; type: functional, cell-based, U-87MG ATCC
[5] = tested on: A549; assay: In vitro cytotoxicity against parental and drug resistant lung human tumor cell line A549; type: functional, cell-based
[6] = tested on: KB; assay: In vitro cytotoxicity against parental and drug resistant camptothecin resistant human tumor cell line KB-CPT; type: functional, cell-based
[7] = tested on: HCT-8; assay: In vitro cytotoxicity against parental and drug resistant ileococal human tumor cell line HCT-8; type: functional, cell-based
[8] = tested on: KB; assay: In vitro cytotoxicity against parental and drug resistant etoposide resistant human tumor cell line KB-7d; type: functional, cell-based
[9] = tested on: SK-MEL-2; assay: In vitro cytotoxicity against parental and drug resistant melanoma human tumor cell line SK-MEL-2; type: functional, cell-based
[10] = tested on: KB; assay: In vitro cytotoxicity against parental and drug resistant nasopharyngeal human tumor cell line KB; type: functional, cell-based
[11] = tested on: MCF7; assay: In vitro cytotoxicity against parental and drug resistant breast human tumor cell line MCF-7; type: functional, cell-based
[12] = tested on: KB; assay: In vitro cytotoxicity against parental and drug resistant vincristine resistant human tumor cell line KB-VIN; type: functional, cell-based
[13] = tested on: HOS; assay: In vitro cytotoxicity against parental and drug resistant bone human tumor cell line HOS; type: functional, cell-based
[14] = tested on: 1A9/ptx-10; assay: In vitro cytotoxicity against parental and drug resistant paclitaxel human tumor cell line IA9-PTX10; Not active at 10 uM; type: functional, cell-based
[15] = tested on: A549; assay: Percentage inhibition against parental and drug resistant lung human tumor cell line A549 at 10 uM; type: functional
[16] = tested on: HOS; assay: In vitro cytotoxicity against parental and drug resistant bone human tumor cell line HOS; Not active at 10 uM; type: functional, cell-based
[17] = tested on: KB; assay: Percentage inhibition against parental and drug resistant nasopharyngeal human tumor cell line KB at 10 uM; type: functional
[18] = tested on: KB; assay: In vitro cytotoxicity against parental and drug resistant camptothecin resistant human tumor cell line KB-CPT; Not active at 10 uM; type: functional, cell-based
[19] = tested on: 1A9; assay: In vitro cytotoxicity against parental and drug resistant ovarian human tumor cell line IA9; Not active at 10 uM; type: functional, cell-based
[20] = tested on: U-87 MG; assay: In vitro cytotoxicity against parental and drug resistant glioblastoma human tumor cell line U87MG; Not active at 10 uM; type: functional, cell-based; details: u-87mg atcc
[21] = tested on: KB; assay: Tested for cytotoxicity against parental and drug resistant etoposide resistant human tumor cell line KB-7d; type: functional, cell-based
[22] = tested on: CAKI-1; assay: In vitro cytotoxicity against parental and drug resistant kidney human tumor cell line CAKI; Not active at 10 uM; type: functional, cell-based
[23] = tested on: MCF7; assay: In vitro cytotoxicity against parental and drug resistant breast human tumor cell line MCF-7 at 10 uM; type: functional
[24] = tested on: HCT-8; assay: In vitro cytotoxicity against parental and drug resistant ileococal human tumor cell line HCT-8; Not active at 10 uM; type: functional, cell-based
[25] = tested on: SK-MEL-2; assay: Percentage inhibition against parental and drug resistant melanoma human tumor cell line SK-MEL-2 at 10 uM; type: functional
[26] = tested on: KB; assay: Percentage inhibition against parental and drug resistant vincristine resistant human tumor cell line KB-VIN at 10 uM; type: functional
[27] = tested on: KB; assay: Percentage inhibition against parental and drug resistant etoposide resistant human tumor cell line KB-7d at 10 uM; type: functional

Row | Structure (SMILES) | IC50 [1] | IC50 [2] | IC50 [3] | IC50 [4] | IC50 [5] | IC50 [6] | IC50 [7] | IC50 [8] | IC50 [9] | IC50 [10] | IC50 [11] | IC50 [12] | IC50 [13] | other results
1 | C=C/C(C)=C/C[C@@]1(C)[C@@H](C)C[C@@H](O)C23C(=C[C@@H](OC(=O)C(C)C)C[C@@H]21)[C@H](OC(C)=O)O[C@@H]3OC(C)=O (stereo partly drawn) | 1100 nM | 500 nM | 500 nM | 1000 nM | 500 nM | 800 nM | 900 nM | 800 nM | 700 nM | 900 nM | 900 nM | 1100 nM | 800 nM | 
2 | C=C/C(C)=C/C[C@@]1(C)[C@@H](C)CC[C@]2(COC(C)=O)C(COC(C)=O)=CC(=O)C[C@@H]21 |  |  |  |  | > 10000 nM |  |  |  | > 10000 nM | > 10000 nM | > 10000 nM | > 10000 nM |  | IC50 [14]: Not Active; inhibition at 10 µM [15]: 6%; IC50 [16]: Not Active; inhibition at 10 µM [17]: 7%; IC50 [18]: Not Active; IC50 [19]: Not Active; IC50 [20]: Not Active; IC50 [21]: > 10000 nM; IC50 [22]: Not Active; inhibition at 10 µM [23]: 12%; IC50 [24]: Not Active; inhibition at 10 µM [25]: 7%; inhibition at 10 µM [26]: 22%; inhibition at 10 µM [27]: 23%
3 | C=C/C(C)=C/C[C@@]1(C)[C@@H](C)CCC23C(=C[C@@H](OC(=O)C(C)C)C[C@@H]21)[C@H](OC(C)=O)O[C@@H]3OC(C)=O (stereo partly drawn) | 1800 nM | 600 nM | 500 nM | 1200 nM | 1100 nM | 900 nM | 1000 nM | 900 nM | 1000 nM | 900 nM | 1100 nM | 1000 nM | 900 nM | 
4 | C=C/C(C)=C/C[C@]1(C)[C@H]2C[C@H](OC(=O)C(C)CC)C=C3[C@H](OC(C)=O)O[C@H](OC(C)=O)[C@@]32[C@H](O)C[C@@H]1C (stereo partly drawn) [CASEARLUCIN A] | 1900 nM | 1000 nM | 1100 nM | 1400 nM | 1100 nM | 1100 nM | 1300 nM | 1100 nM | 1000 nM | 1100 nM | 1800 nM | 1200 nM | 1200 nM | 
